The values that follow come from US20130017198A1, “MANIPULATION OF CALCIUM CHANNELS TO REGULATE AFTER-DEPOLARIZATION EVENTS IN CARDIAC MYOCYTES” (THE UAB RESEARCH FOUNDATION, priority 2010, published 2013).

Entries after “also recorded” stand apart in the source; their conditions may differ. Like-named read-outs stand apart in the source and are kept apart here.

Assay [1] deals with left atrial appendage (LAA). The assay is described as follows: ATX-II-induced after-contractions (mechanical activity) in paced superfused rat left atrial appendage. As for the experimental part:
(§1) To determine whether ATX-II prolongs action potential duration and provokes after-depolarization and after-contractions, paced isolated rat LAA were superfused at 30° C., impaled with glass microelectrodes, and their action potentials were recorded. ATX-II was then added to the superfusate at about 30 nM and action potentials were recorded again.
The LAA was externally paced at 1 Hz throughout.
A series of experiments was performed to test the hypothesis that the calcium source for after-depolarization is the ARC channel. To test whether after-contractions and after-depolarization require ARC or SOCC activity, experiments were performed with the ARC channel inhibitor LOE-908 and with the SOCC inhibitor SKF-96365. Rat LAA were superfused at 30° C. and exposed to ˜30 nM ATX-II.

In assay [2] the test system is left atrial appendage (LAA). The assay is described as follows: Action potential recording / after-depolarization in paced superfused rat LAA exposed to ATX-II. The note with it: for action potential duration: ~30 nM ATX-II plus LOE-908 or SKF-96365.
Source text: For example, isolated superfused muscles can be impaled with conventional glass microelectrodes of 10 to 30 MΩ resistance; these microelectrodes are filled with a solution of 3 M potassium chloride. Microelectrodes are routinely mounted on 30 μm silver-silver chloride spiral wire to allow for freedom of motion. Following the successful impalement of an individual myocyte, action potentials can be recorded with DC coupling at the center of the ring as the difference in voltage between the intracellular microelectrode and the extracellular silver-silver chloride reference electrode. Electrical signals are passed through a high-impedance capacitance-compensation preamplifier and are recorded on a personal computer at a sampling rate of […]. Subsequent data analysis of the action potentials of these muscles is performed using standard software (for an example of such a protocol, see Huang J et al., “Restitution properties during ventricular fibrillation in the in situ swine heart” Circulation 110:3161-3167 (2004), which is hereby incorporated by reference only for such teaching).
as §1
A series of experiments was performed to test the hypothesis that the calcium source for after-depolarization is the ARC channel. To test whether after-contractions and after-depolarization require ARC or SOCC activity, experiments were performed with the ARC channel inhibitor LOE-908 and with the SOCC inhibitor SKF-96365. Rat LAA were superfused at 30° C. and exposed to ˜30 nM ATX-II. After 10-15 minutes, these muscles produced steady-state after-contractions, prolonged action potential duration and after-depolarization as shown previously.

Assay [3] concerns left atrial appendage (LAA). The assay is described as follows: Abnormal automatic activity of LAA at high ATX-II concentration. Also noted: species or system rat. As for the experimental part: Although moderate concentrations of ATX-II appear to cause after-contractions, high concentrations of ATX-II cause abnormal automatic activity. To further test the hypothesis that after-contractions occur via a separate mechanism from abnormal automatic activity, LAA were exposed to high concentrations (60 nM) of ATX-II. The LAA were then exposed to one of 40 μM LOE-908 without pacing, 20 μM SKF-96365 with 1 Hz pacing, or 40 μM SKF-96365 with 1 Hz pacing.

Assay [4] relates to left atrial appendage (LAA). As to the kind of experiment: Abnormal automatic activity produced by 2-aminoethoxy diphenylborate (SOCC activator) in calcium-loaded LAA. The note with it: calcium-loaded LAA treated with 2-aminoethoxy diphenylborate. As for the experimental part: To further test the hypothesis that the calcium source for after-depolarization is not the SOCC, calcium-loaded LAA were treated with 2-aminoethoxy diphenylborate (an activator of the SOCC) to produce abnormal automatic activity. The LAA were then treated with either LOE-908 or SKF-96365.

Assay [5] concerns isolated rat cardiac muscle. As to the kind of experiment: After-contractions in isolated rat cardiac muscle incubated with ATX-II and CPLA2 inhibitors. The note with it: for IC50: isolated rat cardiac muscle incubated with ATX-II, read-out: IC50 (frequency of aftercontractions). The method, then:
In a separate experiment, isolated rat cardiac muscle was incubated with ATX-II in the presence of varying concentrations of amylcinnamoyl-anthranilic acid.

A further assay concerns the target T1, ARC channel (Rattus norvegicus, UniProt Q5M848+Q6AXR8).
T1 construct: from tissue; host or cells: rat left atrial appendage (LAA) muscle
As to the kind of experiment: Effect on ARC channel activity.

Assay [6] deals with T2, store-operated calcium channel (SOCC) (Rattus norvegicus, UniProt Q5M848).
T2 construct: from tissue; host or cells: rat left atrial appendage (LAA) muscle
As to the kind of experiment: Effect on store-operated calcium channel activity.

In a further assay the target is T3, CPLA2 (Homo sapiens, UniProt P47712).
T3 sequence (P47712 1-749): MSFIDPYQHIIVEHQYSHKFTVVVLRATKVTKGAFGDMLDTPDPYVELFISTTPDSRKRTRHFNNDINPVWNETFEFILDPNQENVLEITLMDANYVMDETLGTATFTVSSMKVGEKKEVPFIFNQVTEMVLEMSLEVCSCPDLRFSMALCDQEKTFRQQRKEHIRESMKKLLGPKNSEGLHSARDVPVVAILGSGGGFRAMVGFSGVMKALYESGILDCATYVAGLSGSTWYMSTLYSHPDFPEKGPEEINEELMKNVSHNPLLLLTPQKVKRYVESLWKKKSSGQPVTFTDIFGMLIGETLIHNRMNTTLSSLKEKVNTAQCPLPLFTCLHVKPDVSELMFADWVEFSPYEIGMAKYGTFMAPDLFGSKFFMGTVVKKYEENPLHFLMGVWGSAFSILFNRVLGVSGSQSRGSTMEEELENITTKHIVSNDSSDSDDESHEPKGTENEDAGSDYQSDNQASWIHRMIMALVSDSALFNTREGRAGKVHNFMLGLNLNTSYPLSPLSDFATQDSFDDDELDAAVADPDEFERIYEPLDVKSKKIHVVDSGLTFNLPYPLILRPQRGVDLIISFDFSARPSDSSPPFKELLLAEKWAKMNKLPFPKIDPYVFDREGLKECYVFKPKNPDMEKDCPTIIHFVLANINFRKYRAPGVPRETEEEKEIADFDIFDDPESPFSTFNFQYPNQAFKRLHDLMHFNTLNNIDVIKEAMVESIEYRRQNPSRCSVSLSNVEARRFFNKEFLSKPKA
As to conditions: selective inhibitor of CPLA2; cited from earlier work.

Another assay concerns CPLA2 activity in vivo. As to conditions: cited from earlier work.
[7] abbreviates: LAA pre-treated with the compound, then ATX-II.
Where [8] appears, read: 0.6 μM ryanodine, after steady-state ATX-II after-contractions.
[9] abbreviates: increasing concentrations, ~30 nM ATX-II, data not shown.
[10] abbreviates: increasing concentrations, ~30 nM ATX-II, rat LAA at 30° C.

T2 sequence (Q5M848 whole entry): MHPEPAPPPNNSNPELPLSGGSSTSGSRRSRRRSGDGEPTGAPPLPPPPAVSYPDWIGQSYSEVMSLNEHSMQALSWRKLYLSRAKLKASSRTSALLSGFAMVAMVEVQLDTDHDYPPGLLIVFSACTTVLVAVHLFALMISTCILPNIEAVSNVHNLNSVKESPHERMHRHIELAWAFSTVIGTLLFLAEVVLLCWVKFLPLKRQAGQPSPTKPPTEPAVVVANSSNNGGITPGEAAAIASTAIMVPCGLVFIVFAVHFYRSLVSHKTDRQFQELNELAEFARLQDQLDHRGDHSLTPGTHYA
T1 sequence (Q5M848 whole entry, other chains not shown): as the sequence (Q5M848 whole entry) above

Regarding `COc1ccc(CCN(C)CCCC(C#N)(c2ccc(OC)c(OC)c2)C(C)C)cc1OC` (stereo not drawn) [verapamil], the production of after-contractions result in [1] (10 μM verapamil, paced at 1 Hz, steady-state ATX-II after-contractions) is “did not affect the production of after-contractions”.
In the case of `COc1ccc(S(=O)(=O)Nc2ccccc2CN(C)C/C=C/c2ccc(Cl)cc2)cc1` [KN-92], the after-contractions result in assay [1] (setting [7]) is recorded as “does not prevent after-contractions; also recorded: does not suppress after-contractions”.
Turning to “ATX-II: Anemonia sulcata toxin, sodium channel regulator that increases the late sodium current; arrhythmic agent”, the “action potential duration and early after-depolarization” value in assay [2] (30 nM ATX-II, paced isolated rat LAA superfused at 30° C.) is “produced prolonged action potential duration and produced early after-depolarization during repolarization”. Also, in assay [1], the “concentration inducing arrhythmia and after-depolarization” value is 5 to 60 nM. For the same molecule, in assay [1] (30 nM ATX-II, LAA paced at 1 Hz), the “after-contractions following each paced contraction” value is on record as “after-contractions are observed”. Further, the “concentration below which the ability to induce arrhythmia starts to decrease” value in assay [1] (KH buffer with added glucose) lay in the range of 10 to 50 nM. In [3] (60 nM ATX-II, FIG. 8A), the “rate of rapid contraction in the absence of pacing” value was determined as 4 Hz. Further, the “rate of automatic activity persisting in the absence of pacing” value in assay [3] (60 nM ATX-II, FIG. 8B) was 2.7-3.3 Hz. Moreover, the after-contractions result in assay [3] (60 nM ATX-II, left atria paced at 1 Hz) was “displayed after-contractions”. Besides, the abnormal automatic activity result in assay [3] (higher concentration of ATX-II) was “displayed abnormal automatic activity”.
For ryanodine, in assay [1] (setting [8]), the after-contractions result is given as “after-contractions continued to occur” and the mechanical force entry is “greatly diminished mechanical force”.
For `COc1ccc(CCCOC(Cn2ccnc2)c2ccc(OC)cc2)cc1` (stereo not drawn) [SKF-96365], the after-depolarization entry in [2] (setting [9]) was “The same was observed”. For the same molecule, in assay [2], the action potential duration result is given as “remained prolonged”. For the same molecule, the after-contractions entry in assay [1] (setting [10]) is “suppressed after-contractions in a dose-dependent manner”. For the same molecule, the abnormal automatic activity result in assay [3] (60 nM ATX-II, 20 μM or 40 μM SKF-96365 with 1 Hz pacing) is listed as “either reduced or eliminated abnormal automatic activity”. The “rate of spontaneous contractions caused by activation of the SOCC” value in [4] is “reduces the rate of spontaneous contractions”.
For the molecule `CCCCCc1ccc(/C=C/C(=O)Nc2ccccc2C(=O)O)cc1` [ACA], in assay [2], the after-depolarization result is “suppress after-depolarization” and the “concentration as low as which after-depolarization is suppressed” value amounted to 10 µM. In assay [2] (listed as amylcinnamoyl-anthranilic acid), the after-depolarization result is on record as “effectively inhibit after-depolarization”. In addition, in assay [5], the after contractions entry was “suppress after contractions”, the “concentration as low as which after contractions are suppressed” value was 10 µM and the IC50 was 10 ± 4.5 µM. Also, the frequency of aftercontractions result in assay [5] (0-50 μM of ACA) is “decrease with increasing concentration”.
`COc1cc2c(cc1OC)C(C(C(=O)N(CCc1ccc(OC)c(OC)c1OC)CCc1ccc(OC)c(OC)c1OC)c1ccccc1)=NCC2` (stereo not drawn) [LOE-908]: the ARC channel activity entry on ARC channel was “inhibit the activity of the ARC channel”. In addition, in assay [2], the “concentration as low as which after-depolarization is effectively reduced” value turned out to be 1 µM and the action potential duration entry was “remained prolonged”. Besides, the after-depolarization result in assay [2] (20 μM) is listed as “no after-depolarization is observed”. Also, the after-depolarization result in assay [2] (setting [9]) is “The same was observed”. In addition, the ectopic contractions entry in [1] (20 μM) is recorded as “no ectopic contractions are observed”. Further, in assay [1] (cardiac muscle), the “concentration as low as which ectopic contractions are effectively reduced” value is 1 µM. For the same molecule, in assay [1] (setting [10]), the after-contractions entry is listed as “suppressed after-contractions in a dose-dependent manner”. For the same molecule, the “store-operated calcium channel (SOCC) activity” value in assay [6] is listed as “no effect on the activity of the store-operated calcium channel”. In addition, in assay [3] (60 nM ATX-II, 40 μM LOE-908 without pacing), the abnormal automatic activity entry is recorded as “failed to suppress abnormal automatic activity”.
Consider `COc1ccc(S(=O)(=O)N(CCO)c2ccccc2CN(C)C/C=C/c2ccc(Cl)cc2)cc1` [KN-93], for which the after-contractions result in assay [1] (setting [7]) is on record as “do not produce after-contractions; also recorded: suppression of after-contractions”.
Regarding methyl-β-cyclodextrin, the ARC channel activity entry on ARC channel was “completely suppresses ARC channel activity”. Further, the “concentration as low as which after-depolarization is effectively eliminated” value in [2] is on record as 10 mM. Besides, the after-contractions entry in assay [1] (10 mM MβC superfusion then wash, ~30 nM ATX-II, 20 min recording) was “produced no after-contractions”. The “concentration as low as which ectopic contractions are effectively eliminated” value in assay [1] (cardiac muscle) is 10 mM. In assay [6], the “store-operated calcium channel (SOCC) activity” value is “only reducing the activity of the SOCC to a minor degree”.
Take `COc1cccc2c1cc([N+](=O)[O-])c1c(C(=O)O)cc3c(c12)OCO3` [aristolochic acid, 8-methoxy-6-nitrophenanthro[3,4-d][1,3]dioxole-5-carboxylic acid]: the after-depolarization entry in assay [2] is reported as “effectively inhibit after-depolarization; also recorded: suppress after-depolarization”. In [5], the after contractions entry is on record as “suppress after contractions” and the IC50 worked out at 31 ± 5 µM.
Take `O=C(CCc1ccc(OCCS(=O)(=O)CCOC(c2ccc(Cl)cc2)c2ccc(Cl)cc2)cc1)C(F)(F)F` [BMS-229724, 4-[4-[2-[2-[bis(4-chlorophenyl)methoxy]ethyl-sulfonyl]ethoxy]phenyl]-1,1,1-trifluoro-2-butanone]: on CPLA2, the IC50 was 2.8 µM. For the same molecule, the “CPLA2 activity in vivo / skin inflammation” value with CPLA2 activity in vivo is “suppression of skin inflammation”.

The IC50 is the concentration that gives 50% inhibition.
